This experiment concerns variant F49 of the protease from Bacillus lentus. Put plainly: Residual proteolytic activity after storage in liquid washing agent (suc-AAPF-pNA release). It is filed as biochemical. Particulars: 13 days at 30° C., based on initial activity of 100%. The source says: A liquid washing agent of the following composition served as a baseline washing agent formulation (all indications in percent by weight): 0.3 to 0.5% xanthan, 0.2 to 0.4% antifoaming agent, 6 to 7% glycerol, 0.3 to 0.5% ethanol, 4 to 7% FAEOS (fatty alcohol ether sulfate), 24 to 28% nonionic surfactants, 1 to 2% sodium citrate (dihydrate), 2 to 4% soda, 14 to 16% coconut fatty acids, 0.5% HEDP (1-hydroxyethane-(1,1-diphosphonic acid)), 0 to 0.4% PVP (polyvinylpyrrolidone), 0 to 0.05% optical brightener, 0 to 0.001% dye, remainder demineralized water.
The oligoaminobiphenyl oligocarboxylic acid 3,3-diamino-[1,1-biphenyl]-2,4-dicarboxylic acid was incorporated into this formulation as the component stabilizing the hydrolytic enzyme, as indicated below (see Table 1, indications in this regard in wt %). Comparison formulations that contained either boric acid as an enzyme stabilizer, or no enzyme stabilizer, served as controls. The protease used was variant F49 of the protease from Bacillus lentus in accordance with WO 95/23221 (quantity used: 1 wt % active substance).
After storage, the respective residual proteolytic activity was determined by way of the release of the para-nitroaniline (pNA) chromophore from the suc-L-Ala-L-Ala-L-Pro-L-Phe-p-nitroanilide substrate (suc-AAPF-pNA) (SEQ ID NO. 1). The protease cleaves the substrate and releases pNA. The release of pNA causes an increase in extinction at 410 nm, the time course of which is an indication of enzymatic activity (see Del Mar et al., 1979). Measurement occurred at a temperature of 25° C., at pH 8.6 and at a wavelength of 410 nm. The measurement time was 5 min, with a measurement interval from 20 s to 60 s. The proteolytic activity values obtained are indicated in Table 1 below, based on an initial activity of 100% when storage began.

Where [1] appears, read: 1.0 wt % (1%) stabilizer in baseline liquid washing agent.

For the compound `Nc1cc(-c2cccc(N)c2C(=O)O)ccc1C(=O)O`, the “residual proteolytic activity after storage” value (“residual proteolytic activity” for short) (0.1 wt % stabilizer in baseline liquid washing agent) is listed as 30.2%, the “residual proteolytic activity” value (0.5 wt % stabilizer in baseline liquid washing agent) is given as 43.5%, the “residual proteolytic activity” value under setting [1] is 48.0% and the “residual proteolytic activity” value (2.0 wt % stabilizer in baseline liquid washing agent) worked out at 73.6%.
As to `OB(O)O` [boric acid, reference compound], the “residual proteolytic activity” value under setting [1] amounted to 74.9%.
